Assay results taken from patent publication US9770423B2, “Modulation sAPP, sAAPα and BDNF levels in individuals diagnosed with FXS and ASD” (Indiana University Research and Technology Corp., priority 2012, dated 2017).
“Also recorded” adds a separate entry of the source.

Experiments:
[1] = safety measures and adverse effects in the FXS open-label trial; assay type: in vivo, human
Source text: Safety assessment and monitoring began at screen when all subjects underwent a medical history, physical examination, and full psychiatric interview. A physical examination was also completed at end point. Vital signs, including height and weight, were obtained at each study visit. At screen, genetic testing for FXS was obtained if record of molecular testing utilizing Southern Blot and PCR was not available. At screen, week 6, and endpoint, laboratory tests of blood and urine, including CBC with differential and platelets, electrolyte panel, liver associated enzymes, lipid panel, and urine pregnancy test (in females) were obtained. An electrocardiogram was also obtained at screen and endpoint.
The pilot study ran for 10 weeks. Safety lab screens were carried out at weeks 6 and 10. Physiologic parameters measured during the safety screens were as follows: vital signs, LFTs, electrolyte panels, CBC with diff/plts, lipid panel, glucose, urinalysis and ECG.
In-person clinical visits were scheduled for every two weeks. Telephonic evaluations were carried out at weeks 1, 3, and 5. Each subject was evaluated for side effects at every interaction with the practitioner.

[2] = safety and adverse effects in the 12-week trial in youth with autistic disorder; assay type: in vivo, human; settings: nine youth with autistic disorder receiving acamprosate
Method: A 12-week single-blind, placebo-controlled trial of the effect of acamprosate in the treatment of 12 youths with autistic disorder aged 5 to 17 years was carried out. In order to pilot test use of acamprosate in youth with autism targeting core social impairment, was conducted. All subjects and their family members were blinded to treatment status. All subjects participated in a 2 week placebo-lead-in phase prior to 10 weeks of treatment with acamprosate. For this project, enteric coated commercially available 333 mg acamprosate pills were over-encapsulated and identical matching placebo manufactured for the project. Placebo-responders, defined by a Clinical Global Impressions Improvement scale (CGI-I) score of 1 “very much improved” or 2 “much improved” (ratings anchored to core social deficits) at week 2 were asked to exit the study. During active treatment with acamprosate, dosing was increased in 333 mg increments per week over the first six weeks of active treatment to a maximum dose of 1,332 mg/day (weight<5 60 kg) or 1,998 mg/day (weight>60 kg). During the final four weeks of active drug treatment, subjects were maintained on a stable highest tolerated (optimal) dose. The primary outcome measure was the clinician-rated CGI-I anchored to symptoms of social impairment. […]

[3] = caregiver reported, 12 youth with FXS

CC(=O)NCCCS(=O)(=O)O.[Ca] [acamprosate, Calcium Acetylhomotaurine]
Increased body rocking, mild (number of patients) ([1]; 12 youth with FXS): 1 | ECG including QTc interval ([1]; FXS trial): no change in the QTc interval | laboratory measures: lipids, electrolytes, liver function tests, blood counts ([1]; FXS trial): no clinically significant or mean changes | weight, pulse, or blood pressure ([1]; FXS trial): No clinically significant changes | overall tolerability ([1]; FXS trial, 12 subjects): well tolerated overall, with no severe or serious adverse effects | Constipation, mild (n subjects) [1, 3]: 1 | Diarrhea, mild (n subjects) [1, 3]: 1 | Increased Anxiety, mild (n subjects) [1, 3]: 1 | Increased Repetitive Behavior, mild (n subjects) [1, 3]: 2 | Insomnia, mild (n subjects) [1, 3]: 1 | Irritability, mild (n subjects) [1, 3]: 4 | Nightmares, mild (n subjects) [1, 3]: 1 | Rhinitis, mild (n subjects) [1, 3]: 1 | Urinary Urgency, mild (n subjects) [1, 3]: 1 | subjects who experienced a mild adverse event ([1]; nine of 12 subjects, FXS trial): 75% | overall tolerability [2]: well tolerated with no adverse effects leading to drug discontinuation or laboratory/vital sign abnormalities noted; also recorded: well tolerated with no adverse effects leading to drug discontinuation and no vital sign or safety laboratory changes noted
